This test concerns the target T1, hSGLT1 (Homo sapiens, UniProt P13866).
T1 sequence (P13866 1-664): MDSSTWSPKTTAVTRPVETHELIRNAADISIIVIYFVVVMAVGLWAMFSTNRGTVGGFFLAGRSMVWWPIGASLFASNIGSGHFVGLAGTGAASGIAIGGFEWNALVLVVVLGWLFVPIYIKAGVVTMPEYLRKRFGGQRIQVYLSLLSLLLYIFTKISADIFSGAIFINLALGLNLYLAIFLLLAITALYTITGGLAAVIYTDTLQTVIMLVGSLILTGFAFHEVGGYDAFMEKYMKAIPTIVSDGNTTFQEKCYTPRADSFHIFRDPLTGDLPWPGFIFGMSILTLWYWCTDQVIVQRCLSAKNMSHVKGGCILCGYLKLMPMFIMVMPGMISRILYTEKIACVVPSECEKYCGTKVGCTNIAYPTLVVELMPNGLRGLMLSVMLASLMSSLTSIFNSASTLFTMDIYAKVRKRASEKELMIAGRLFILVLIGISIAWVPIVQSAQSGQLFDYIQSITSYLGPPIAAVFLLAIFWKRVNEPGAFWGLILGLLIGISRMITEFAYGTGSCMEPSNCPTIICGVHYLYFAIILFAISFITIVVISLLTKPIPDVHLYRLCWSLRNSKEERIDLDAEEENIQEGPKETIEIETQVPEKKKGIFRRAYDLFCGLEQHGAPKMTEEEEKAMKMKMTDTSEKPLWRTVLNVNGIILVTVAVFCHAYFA
Put plainly: 1-NBDG uptake inhibition in COS-7 cells expressing hSGLT1, single dose […]. It is filed as cell-based. The settings on record: COS-7, read-out: % Uptake via / hSGLT1.

In the case of `O=C(/C=C/c1ccc(O)cc1)OC[C@H]1O[C@@H](Oc2c(-c3ccc(O)cc3)oc3cc(O)cc(O)c3c2=O)[C@H](O)[C@@H](O)[C@@H]1O` [compound 15, Tiliroside], the activity at 50 µM was 33.1 ± 0.85%.

For the origin of these results see article PMC9261792 (Journal of Food and Drug Analysis, 2021).
